This passage reports IC50 results from patent US20260070945A1, “MACROCYCLIC IMMUNOMODULATORS” (Bristol-Myers Squibb Company, priority 2022, published 2026).

*1 amine or outer side, *2 acyl side, *3 side chain or, on linkers, in order; H or OH if unused. Where a SMILES comes first, the peptide text is derived from it. Bridges are numbered along the chain shown (N, C = ends). [ ]: non-standard residue; d: D form. The star is where a group is joined. ξ: configuration not given here. Phe(3-CF3) = N[C@@H](Cc1cccc(C(F)(F)F)c1)C(=O)O; Phe(4-COOH) = N[C@@H](Cc1ccc(C(=O)O)cc1)C(=O)O; d(γGlu) = O=C(O)[C@@H](CCC(=O)[*:2])N[*:1]; Bip = N[C@@H](Cc1ccc(-c2ccccc2)cc1)C(=O)O; NH(CH2)14COOH = O=C(O)CCCCCCCCCCCCCCN*; Phe(3-Me) = Cc1cccc(C[C@H](N)C(=O)O)c1; γGlu = O=C(O)[C@H](CCC(=O)[*:2])N[*:1]; NH(CH2)12COOH = O=C(O)CCCCCCCCCCCCN*; Val(3-OH) = CC(C)(O)[C@H](N)C(=O)O; Cha = N[C@@H](CC1CCCCC1)C(=O)O; Thr(3ξ) = CC(O)[C@H](N)C(=O)O; 12Ado = NCCCCCCCCCCCC(=O)O; dDab = NCC[C@@H](N)C(=O)O; Carboxymethyl = O=C(O)C*; NMeA = CN[C@@H](C)C(=O)O; Nle = CCCC[C@H](N)C(=O)O; Dab = NCC[C@H](N)C(=O)O; AEEA = NCCOCCOCC(=O)O; ξC = NC(CS)C(=O)O

T1 sequence (Q15116 25-288): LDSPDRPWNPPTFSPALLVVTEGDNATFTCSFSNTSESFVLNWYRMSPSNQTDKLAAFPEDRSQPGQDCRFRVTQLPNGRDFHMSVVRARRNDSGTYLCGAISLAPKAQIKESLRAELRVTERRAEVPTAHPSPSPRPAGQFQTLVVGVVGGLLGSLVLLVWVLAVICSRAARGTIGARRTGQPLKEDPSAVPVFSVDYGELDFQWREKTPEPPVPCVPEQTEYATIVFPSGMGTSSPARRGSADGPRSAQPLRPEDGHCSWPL

The test has as its target T1, PD-1/PD-L1 interaction (PE-labeled human PD-L1-Ig binding to Jurkat cell line over-expressing human PD-1) (Homo sapiens, UniProt Q15116).
T1 construct: expressed in transfected cells; host or cells: Jurkat
The test is described as follows: Jurkat-PD-1 Cell Binding High-Content Screening Assay (CBA). As to conditions: PE-labeled PD-L1-Ig 20 nM final, Jurkat-hPD-1 cells; read-out: Jurkat HPD1 PDL1 IC50. The essentials: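 In this imaging assay, cells in 10% FCS medium see compound for 2 h at 37 °C and then labeled ligand at 20 nM final for 1 h. Paraformaldehyde fixation, Hoechst 33342 staining and dPBS washes precede image capture.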
In the case of `Cc1cccc(C[C@@H]2NC(=O)[C@H](CC(=O)O)NC(=O)[C@H](Cc3ccc(OCC(=O)O)cc3)NC(=O)[C@H](C)NC(=O)CSC[C@@H](C(=O)N[C@@H](CCN)C(=O)NCCCCCCCCCCCCC(=O)O)NC(=O)[C@H](Cc3cnc[nH]3)NC(=O)[C@H](C(C)(C)O)NC(=O)[C@H](CC3CCCCC3)NC(=O)[C@H](CCN)NC(=O)[C@@H](CC(C)C)NC(=O)[C@H](C)N(C)C(=O)[C@H](CCCNC(=N)N)NC(=O)[C@H](Cc3ccc(-c4ccccc4)cc3)NC(=O)[C@H](Cc3ccc(O)cc3)NC2=O)c1` [Example 2642] ({CH2CO}-AY(Carboxymethyl)D[Phe(3-Me)]Y[Bip]R[NMeA][dL][Dab][Cha][Val(3-OH)]HC[Dab]-{NH(CH2)12COOH}; thioether N-14), the IC50 was 74.4 nM. Consider `Cc1cccc(C[C@@H]2NC(=O)[C@H](CC(=O)O)NC(=O)[C@H](Cc3ccc(C(=O)O)cc3)NC(=O)[C@H](C(C)O)NC(=O)CSCC(C(=O)N[C@@H](CCN)C(=O)NCCCCCCCCCCCCC(=O)O)NC(=O)[C@H](CO)NC(=O)[C@H](C(C)(C)O)NC(=O)[C@H](CC3CCCCC3)NC(=O)[C@H](CCN)NC(=O)[C@@H](CC(C)C)NC(=O)[C@H](C)N(C)C(=O)[C@H](CCCNC(=N)N)NC(=O)[C@H](Cc3ccc(-c4ccccc4)cc3)NC(=O)[C@H](Cc3ccc(O)cc3)NC2=O)c1` (stereo partly drawn) [Example 2643] ({CH2CO}-[Thr(3ξ)][Phe(4-COOH)]D[Phe(3-Me)]Y[Bip]R[NMeA][dL][Dab][Cha][Val(3-OH)]S[ξC][Dab]-{NH(CH2)12COOH}; thioether N-14), for which the IC50 came to 39.9 nM.

On to `Cc1cccc(C[C@@H]2NC(=O)[C@H](CC(=O)O)NC(=O)[C@H](Cc3ccc(C(=O)O)cc3)NC(=O)[C@H](C(C)O)NC(=O)CSC[C@@H](C(=O)N[C@@H](CCN)C(=O)NCCCCCCCCCCCCC(=O)O)NC(=O)[C@H](CO)NC(=O)[C@H](C(C)(C)O)NC(=O)[C@H](CC3CCCCC3)NC(=O)[C@H](CCN)NC(=O)[C@@H](CC(C)C)NC(=O)[C@H](C)N(C)C(=O)[C@H](CCCNC(=N)N)NC(=O)[C@H](Cc3ccc(-c4ccccc4)cc3)NC(=O)[C@H](Cc3ccc(C(=O)O)cc3)NC2=O)c1` (stereo partly drawn) [Example 2644] ({CH2CO}-[Thr(3ξ)][Phe(4-COOH)]D[Phe(3-Me)][Phe(4-COOH)][Bip]R[NMeA][dL][Dab][Cha][Val(3-OH)]SC[Dab]-{NH(CH2)12COOH}; thioether N-14), for which the IC50 was 16.6 nM. Take `CC(C)C[C@H]1NC(=O)[C@H](C)N(C)C(=O)[C@H](CCCNC(=N)N)NC(=O)[C@H](Cc2ccc(-c3ccccc3)cc2)NC(=O)[C@H](Cc2ccc(C(=O)O)cc2)NC(=O)[C@H](Cc2cccc(C(F)(F)F)c2)NC(=O)[C@H](CC(=O)O)NC(=O)[C@H](Cc2ccc(OCC(=O)O)cc2)NC(=O)[C@H](C(C)O)NC(=O)CSC[C@@H](C(=O)N[C@H](CC(N)=O)C(=O)NCCCCCCCCCCCCC(=O)O)NC(=O)[C@H](CO)NC(=O)[C@H](C(C)(C)O)NC(=O)[C@H](CC2CCCCC2)NC(=O)[C@H](CCN)NC1=O` (stereo partly drawn) [Example 2645] ({CH2CO}-[Thr(3ξ)]Y(Carboxymethyl)D[Phe(3-CF3)][Phe(4-COOH)][Bip]R[NMeA][dL][Dab][Cha][Val(3-OH)]SC[dN]-{NH(CH2)12COOH}; thioether N-14): the IC50 stood at 114 nM. For the molecule `CC(=O)NCCCC[C@@H]1NC(=O)[C@H](C(C)(C)O)NC(=O)[C@H](CC2CCCCC2)NC(=O)[C@H](CCN)NC(=O)[C@@H](CC(C)C)NC(=O)[C@H](C)N(C)C(=O)[C@H](CCC(N)=O)NC(=O)[C@H](Cc2ccc(-c3ccccc3)cc2)NC(=O)[C@H](Cc2ccc(C(=O)O)cc2)NC(=O)[C@H](Cc2cccc(C(F)(F)F)c2)NC(=O)[C@H](CC(=O)O)NC(=O)[C@H](Cc2ccc(OCC(=O)O)cc2)NC(=O)[C@H](Cc2ccc(OCC(=O)O)cc2)NC(=O)CSC[C@@H](C(=O)N[C@H](CCN)C(=O)NCCOCCOCC(=O)N[C@@H](CO)C(=O)NCCOCCOCC(=O)N[C@@H](CCC(=O)NCCCCCCCCCCCCCCC(=O)O)C(=O)O)NC1=O` [Example 2650] ({CH2CO}-Y(Carboxymethyl)Y(Carboxymethyl)D[Phe(3-CF3)][Phe(4-COOH)][Bip]Q[NMeA][dL][Dab][Cha][Val(3-OH)]K(Ac)C[dDab][AEEA]S[AEEA]E(NH(CH2)14COOH)-OH; thioether N-14), the 50% inhibitory concentration (IC50) was determined as 161 nM. `CC(=O)NCCCC[C@@H]1NC(=O)[C@H](C(C)(C)O)NC(=O)[C@H](CC2CCCCC2)NC(=O)[C@H](CCN)NC(=O)[C@@H](CC(C)C)NC(=O)[C@H](C)N(C)C(=O)[C@H](CCC(N)=O)NC(=O)[C@H](Cc2ccc(-c3ccccc3)cc2)NC(=O)[C@H](Cc2ccc(C(=O)O)cc2)NC(=O)[C@H](Cc2cccc(C(F)(F)F)c2)NC(=O)[C@H](CC(=O)O)NC(=O)[C@H](Cc2ccc(OCC(=O)O)cc2)NC(=O)[C@H](Cc2ccc(OCC(=O)O)cc2)NC(=O)CSC[C@@H](C(=O)N[C@@H](CCN)C(=O)NCCOCCOCC(=O)N[C@@H](CCC(=O)NCCOCCOCC(=O)NCCCCCCCCCCCCCCC(=O)O)C(=O)O)NC1=O` [Example 2652] ({CH2CO}-Y(Carboxymethyl)Y(Carboxymethyl)D[Phe(3-CF3)][Phe(4-COOH)][Bip]Q[NMeA][dL][Dab][Cha][Val(3-OH)]K(Ac)C[Dab][AEEA][γGlu][AEEA]-{NH(CH2)14COOH}; thioether N-14): the IC50 was found to be 47 nM. `CC(=O)NCCCC[C@@H]1NC(=O)[C@H](C(C)(C)O)NC(=O)[C@H](CC2CCCCC2)NC(=O)[C@H](CCN)NC(=O)[C@@H](CC(C)C)NC(=O)[C@H](C)N(C)C(=O)[C@H](CCC(N)=O)NC(=O)[C@H](Cc2ccc(-c3ccccc3)cc2)NC(=O)[C@H](Cc2ccc(C(=O)O)cc2)NC(=O)[C@H](Cc2cccc(C(F)(F)F)c2)NC(=O)[C@H](CC(=O)O)NC(=O)[C@H](Cc2ccc(OCC(=O)O)cc2)NC(=O)[C@H](Cc2ccc(OCC(=O)O)cc2)NC(=O)CSC[C@@H](C(=O)N[C@@H](CCN)C(=O)NCCOCCOCC(=O)N[C@H](CCC(=O)N[C@H](CCC(=O)NCCOCCOCC(=O)NCCCCCCCCCCCCCCC(=O)O)C(=O)O)C(=O)O)NC1=O` [Example 2655] ({CH2CO}-Y(Carboxymethyl)Y(Carboxymethyl)D[Phe(3-CF3)][Phe(4-COOH)][Bip]Q[NMeA][dL][Dab][Cha][Val(3-OH)]K(Ac)C[Dab][AEEA][d(γGlu)][d(γGlu)][AEEA]-{NH(CH2)14COOH}; thioether N-14): the IC50 came out at 584 nM. For `Cc1cccc(C[C@@H]2NC(=O)[C@H](CC(=O)O)NC(=O)[C@H](Cc3ccc(OCC(=O)O)cc3)NC(=O)[C@H](C(C)O)NC(=O)CSC[C@@H](C(=O)N[C@@H](CCN)C(=O)NCCOCCOCC(=O)N[C@@H](CCC(=O)NCCOCCOCC(=O)NCCCCCCCCCCCCC(=O)O)C(=O)O)NC(=O)[C@H](CCC(=O)O)NC(=O)[C@H](C(C)C)NC(=O)[C@H](CC3CCCCC3)NC(=O)[C@H](CCN)NC(=O)[C@@H](CC(C)C)NC(=O)[C@H](C)N(C)C(=O)[C@H](Cc3ccc(OCC(=O)O)cc3)NC(=O)[C@H](Cc3ccc(-c4ccccc4)cc3)NC(=O)[C@H](Cc3ccc(OCC(=O)O)cc3)NC2=O)c1` (stereo partly drawn) [Example 2656] ({CH2CO}-[Thr(3ξ)]Y(Carboxymethyl)D[Phe(3-Me)]Y(Carboxymethyl)[Bip]Y(Carboxymethyl)[NMeA][dL][Dab][Cha]VEC[Dab][AEEA][γGlu][AEEA]-{NH(CH2)12COOH}; thioether N-14), the IC50 is 85.6 nM.

As to `CCCC[C@@H]1NC(=O)CSC[C@@H](C(=O)N[C@@H](CCN)C(=O)NCCOCCOCC(=O)N[C@@H](CCC(=O)NCCOCCOCC(=O)NCCCCCCCCCCCCC(=O)O)C(=O)O)NC(=O)[C@H](CCC(=O)O)NC(=O)[C@H](C(C)C)NC(=O)[C@H](CC2CCCCC2)NC(=O)[C@H](CCN)NC(=O)[C@@H](CC(C)C)NC(=O)[C@H](C)N(C)C(=O)[C@H](Cc2ccc(OCC(=O)O)cc2)NC(=O)[C@H](Cc2ccc(-c3ccccc3)cc2)NC(=O)[C@H](Cc2ccc(OCC(=O)O)cc2)NC(=O)[C@H](Cc2cccc(C)c2)NC(=O)[C@H](CC(=O)O)NC(=O)[C@H](Cc2ccc(OCC(=O)O)cc2)NC1=O` [Example 2657] ({CH2CO}-[Nle]Y(Carboxymethyl)D[Phe(3-Me)]Y(Carboxymethyl)[Bip]Y(Carboxymethyl)[NMeA][dL][Dab][Cha]VEC[Dab][AEEA][γGlu][AEEA]-{NH(CH2)12COOH}; thioether N-14), the IC50 is 88.3 nM. Regarding `CC(=O)NCCCC[C@@H]1NC(=O)[C@H](C(C)(C)O)NC(=O)[C@H](CC2CCCCC2)NC(=O)[C@H](CCN)NC(=O)[C@@H](CC(C)C)NC(=O)[C@H](C)N(C)C(=O)[C@H](Cc2ccc(OCC(=O)O)cc2)NC(=O)[C@H](Cc2ccc(-c3ccccc3)cc2)NC(=O)[C@H](Cc2ccc(OCC(=O)O)cc2)NC(=O)[C@H](Cc2cccc(C)c2)NC(=O)[C@H](CC(=O)O)NC(=O)[C@H](Cc2ccc(OCC(=O)O)cc2)NC(=O)[C@H](C(C)O)NC(=O)CSC[C@@H](C(=O)N[C@@H](CCN)C(=O)NCCOCCOCC(=O)N[C@@H](CCC(=O)NCCCCCCCCCCCCC(=O)O)C(=O)O)NC1=O` (stereo partly drawn) [Example 2658] ({CH2CO}-[Thr(3ξ)]Y(Carboxymethyl)D[Phe(3-Me)]Y(Carboxymethyl)[Bip]Y(Carboxymethyl)[NMeA][dL][Dab][Cha][Val(3-OH)]K(Ac)C[Dab][AEEA]E(NH(CH2)12COOH)-OH; thioether N-14), the IC50 came to 23.6 nM. As for `Cc1cccc(C[C@@H]2NC(=O)[C@H](CC(=O)O)NC(=O)[C@H](Cc3ccc(OCC(=O)O)cc3)NC(=O)[C@H]([C@@H](C)O)NC(=O)CSC[C@@H](C(=O)N[C@@H](CCN)C(=O)NCCOCCOCC(=O)NCCCCCCCCCCCC(=O)O)NC(=O)CNC(=O)[C@H](C(C)C)NC(=O)[C@H](CC3CCCCC3)NC(=O)[C@H](CCN)NC(=O)[C@@H](CC(C)C)NC(=O)[C@H](C)N(C)C(=O)[C@H](Cc3ccc(OCC(=O)O)cc3)NC(=O)[C@H](Cc3ccc(-c4ccccc4)cc3)NC(=O)[C@H](Cc3ccc(OCC(=O)O)cc3)NC2=O)c1` [Example 2664] ({CH2CO}-TY(Carboxymethyl)D[Phe(3-Me)]Y(Carboxymethyl)[Bip]Y(Carboxymethyl)[NMeA][dL][Dab][Cha]VGC[Dab][AEEA][12Ado]-OH; thioether N-14), the figure is 2.3 nM.
